In patent US11541065B2, “Compositions and methods for treating brain injury” (UNM RAINFOREST INNOVATIONS, priority 2018, dated 2023):

What was measured:
ERK MAPK = ERK MAPK phosphorylation during oxygen-glucose deprivation (OGD) in rat cortical neuron cultures; assay type: cell-based; conditions: rat cortical neurons
Experimental: Equal protein from total cell lysates obtained from rat and mice neuronal cultures were resolved in 7.5% SDS-PAGE, and subjected to immunoblotting procedure as described earlier (Podder and Paul, 2009, J Neurochem 110:1095-1106). Blots were analyzed with antibodies as described in each experiment. All primary antibodies (anti-pERK, anti-ERK) and secondary-horse radish peroxidase conjugated antibody concentrations were used according to recommendations provided by the manufacturer. Signals from immune complexes in the blots were developed using West Pico supersignal chemiluminescence reagents and then captured on X-ray films. Densitometric analysis of the images was performed using the Image J software.
At specified time periods (one hour, two hours, and three hours) during OGD alone or OGD in the presence of L-Hcy (50 μM), cells were removed from the chamber and lysed for immunoblot analysis. Some cultures were treated with L-Hcy (three hours) during the OGD insult in the presence or absence of NVP-AAM077 (30 nM; 3 h). […] Cells were then subjected to staining with Hoechst 33342 dye for 15 minutes, washed extensively with PBS, and analyzed using fluorescent microscopy to assess nuclear damage. To quantitatively assess the percentage of pyknotic nuclei, a total of 1000 cells were counted for each set of experiments (Poddar et al., 2010, J Neurochem 115, 1350-1362).

[1] = system: rat cortical neuronal cultures; assay: Neuronal cell death by Hoechst DNA staining, rat cortical neuron cultures; assay type: cell-based
Experimental: Neurons were subjected to staining with Hoechst 33342 dye for 15 minutes, washed extensively with PBS, and analyzed using fluorescent microscopy to assess nuclear damage. Imaging was performed with a Zeiss Axiovert 200M fluorescence microscope with attached AxioCam CCD camera using 20× objective lens (Carl Zeiss, Thomwood, N.Y.). To quantitatively assess the percentage of pyknotic nuclei a total of 1000 cells were counted for each set of experiments. Mean±SEM (n=3) were used for statistical comparison using ANOVA (Bonferroni's multiple comparison test). Differences were considered significant when p<0.05.
[…] Glutamate treated cells were then maintained in their original medium for another 17 hours. For some experiments, neurons were treated with L-homocysteine or glutamate in the presence of NVP-AAM077 or PD98059. The neurons were then fixed and stained with Hoechst 33342 dye as previously described (Poddar and Paul, 2009, J Neurochem 110:1095-1106). Percentage of pyknotic nuclei was quantitatively assessed by fluorescent microscopy to determine the extent of neuronal death.

[2] = system: control and hyperhomocysteinemic rats subjected to MCAO; assay: MCAO (60 min) and reperfusion; infarct size and structural integrity by MRI (T2, ADC, FA maps); assay type: in vivo, male Wistar rats; conditions: for total infarct volume (T2 maps): 24 hours after MCAO
Experimental: Middle cerebral artery occlusion (MCAO) was performed on both male rats and mice. For rat studies, control and hyperhomocysteinemic male Wistar rats (8-9 weeks, 290-295 g) were subjected to MCAO under anesthesia (2% isoflurane in medical grade oxygen), using the intraluminal method as previously described (Candelario-Jalil, E., et al., 2004, Brain Res 1007:98-108; Deb et al., 2013, J Neurosci 33:17814-17826). Briefly, the right common carotid artery (CCA) was exposed through an incision made in the ventral midline neck region. To prevent improper insertion of the occluding filament, both the external carotid artery and pterygopalatine branch of the internal carotid artery were clipped. A silicon-rubber-coated monofilament (403756, Doccol Corp., Sharon, Mass.) was inserted into the internal carotid artery through an incision made in the CCA, 2 mm proximal from the bifurcation of the CCA, and advanced 18-19 mm from the bifurcation, to occlude the origin of the anterior cerebral, middle cerebral, and posterior communicating arteries. The incision was closed and the rats were allowed to recover from anesthesia. A quick assessment of neurological deficit was done immediately prior to reperfusion and only those animals that had more than 50% of contralateral forelimb flexion and walked in circles to the contralateral side were considered for the study, as previously described (Longa et al., 1989, Stroke 20:84-91). Following 60 minutes of occlusion, the rats were anesthetized and the filament was gently retracted to allow reperfusion. The incision was closed and the rats were allowed to recover from anesthesia. A subset of control and hyperhomocysteinemic rats received a single intravenous injection of GluN2A-NMDAR selective inhibitor NVP-AAM077 (1.2 mg/kg body weight) through the femoral vein, and another subset received a single intraperitoneal injection of GluN2B-NMDAR inhibitor Ro 256981 (6 mg/kg body weight), as previously described (Chaperon et al., 2003, Behav Pharmacol 14:477-87; Fox et al., 2006, Hippocampus 16:907-015). Both NVP-AAM077 and Ro 256981 were administered at the onset of ischemic insult. The rats were then subjected to MRI on days 1, 3, and 14 post-MCAO and a series of behavioral tests was performed between days 7-9 post-MCAO.
Multimodal MRI of rat brain that includes relaxation time imaging and diffusion imaging was performed at 1, 3 and 14 days after MCAO and reperfusion. The rats were placed in a dedicated holder and positioned in the isocenter of a 4.7-Tesla MRI scanner (Bruker Biospin) that is equipped with a 40-cm bore and a gradient of 660 mT/m at rise time within […]. To obtain good signal-to-noise ratio, a small-bore linear RF coil (inner diameter=72 mm) was used for signal excitation, and a single tuned surface coil (RAPID Biomedical, Rimpar, Germany) was used for signal detection (Sood et al., 2009, J Cereb Blood Flow Metab 29:308-316; Taheri, S. and Sood, R., 2007, Magn Reson Imaging 25:613-625; Yang et al., 2013 J Cereb Blood Flow Metab 33:1104-1114). For mice, the MRI was performed only at day 1. The mice were placed in its dedicated holder of inner diameter 72 mm in the 4.7-Tesla MRI scanner with a 40-cm bore size and a gradient rise time/maximum speed of 9000 T/m/s. During MRI, the rats and mice were kept anesthetized with 2% isoflurane in medical grade oxygen. Respiration and heart rate were monitored continuously and body temperature was maintained at 37.0±0.5° C.
For rats, T2-weighted images were acquired with a rapid acquisition with relaxation enhancement (RARE) sequence of Repetition Time (TR)/Echo Time (TE)=5,000 ms/56 ms, Field of View (FOV)=4 cm×4 cm, slice thickness=1 mm, inter-slice distance=1.1 mm, number of slices=12, matrix=256×256 and number of average=3. For mice, T2 weighted images were acquired with a RARE sequence of Repetition Time/Echo Time=5,000 ms/56 ms, Field of View=4 cm×4 cm, slice thickness=1 mm, number of slices=12, matrix=256×256 and number of average=3. […]

[3] = control rats, single injection at onset of ischemic insult (NVP-AAM077 1.2 mg/kg; Ro 256981 6 mg/kg), untreated control 18.65±2.89%
[4] = hyperhomocysteinemic (HHcy) rats, single injection at onset of insult (NVP-AAM077 1.2 mg/kg; Ro 256981 6 mg/kg), untreated HHcy 37.41±2.33%

Compound | ERK MAPK phosphorylation during OGD (ERK MAPK; OGD in the presence of L-Hcy 50 μM, time course up to three hours) | number of apoptotic cells (pyknotic nuclei) ([1]; rat cortical neurons, L-homocysteine 50 μM, 24 hours, alone vs untreated controls) | cell death (pyknotic nuclei) ([1]; rat neurons, L-homocysteine 50 μM, 18 h, alone) | total infarct volume (T2 maps) [2, 3] | total infarct volume (T2 maps) [2, 4] | lesion volume (T2 maps) ([2]; HHcy rats, day 3 after MCAO, NVP-AAM077 1.2 mg/kg, untreated HHcy 38.63±2.75%) | FA value in the infarcted area ([2]; HHcy rats, day 14 after MCAO, NVP-AAM077 1.2 mg/kg, untreated HHcy 0.25±0.01) | lesion volume (T2 maps) ([2]; HHcy rats, day 14 after MCAO, NVP-AAM077 1.2 mg/kg, untreated HHcy 27.16±2.18%) | effect on ERK MAPK activation by OGD plus L-homocysteine (ERK MAPK; OGD and L-Hcy 50 μM three hours, NVP-AAM077 30 nM) | effect on homocysteine-induced apoptotic cells ([1]; rat cortical neurons, L-homocysteine 50 μM 24 hours, NVP-AAM077 30 nM) | effect on homocysteine-induced neuronal death ([1]; rat neurons, L-homocysteine 50 μM 18 hours, with NVP-AAM077 30 nM or PD98059 15 μM)
N[C@@H](CCS)C(=O)O [L-homocysteine] | causes sustained ERK MAPK phosphorylation | significant increase in the number of apoptotic cells | significant increase in cell death |  |  |  |  |  |  |  | 
C[C@@H](CN1CCC(Cc2ccccc2)CC1)[C@@H](O)c1ccc(O)cc1 [Ro 25-6981] |  |  |  | 7.46±1.24% | 32.48±4.32% |  |  |  |  |  | 
C[C@H](NC(c1cccc2[nH]c(=O)c(=O)[nH]c12)P(=O)(O)O)c1ccc(Br)cc1 (stereo partly drawn) [NVP-AAM077, ({[(1S)-1-(4-bromophenyl)ethyl]amino}-(2,3-dioxo-1,4-dihydroquinoxalin-5-yl)methyl)phosphonic acid] |  |  |  | 16.07±2.8% | 17.98±3.24% | 19.61±4.48% | 0.32±0.01 | 10.76±2.40% | inhibits the activation of ERK MAPK | significantly reduced the number of apoptotic cells | Significantly Reduces Homocysteine-Induced Neuronal Death
